From patent publication US5726184A, “Tetralin compounds with improved MDR activity” (Vertex Pharmaceuticals Incorporated, priority 1995, dated 1998)
pIC50: −log10 of the molar value. Where two headings read alike, the source gives them in different places.

Columns and labels:
L1210vDOX = assay: Reversal of MDR in L1210vDOX (MDR sensitization assay, doxorubicin with or without MDR inhibitor); assay type: cell-based, mouse; details: for pIC50: 3 days
HL60/ADR cells = assay: Reversal of MRP-mediated MDR in HL60/ADR cells (doxorubicin with or without MDR inhibitor); assay type: cell-based; details: for Fold reversal (IC50 doxorubicin alone / IC50 doxorubicin + MDR inhibitor): HL60/ADR
Method: We plated HL60/ADR cells in 96 well microtiter plates (4×10^4 cells/well). The cells were then exposed to various concentrations of doxorubicin (50 nM to 10 μM) in the presence or absence of various compounds of this invention at various concentrations (0.5-10 μM). After culturing the cells for 3 days, their viability was quantitated using the XTT dye method to assess mitochondrial function. […] IC50 values are expressed in nM. In all assays the intrinsic antiproliferative or cytotoxicity activity of the MDR inhibitors was also determined for HL60/ADR cells.

[1] = IC50 of doxorubicin in presence of 0.5 μM Cpd, read-out: IC50 DOX + 0.5 μM Cpd
[2] = IC50 of doxorubicin in presence of 1.0 μM Cpd, read-out: IC50 DOX + 1.0 μM Cpd
[3] = IC50 of doxorubicin in presence of 2.5 μM Cpd, read-out: IC50 DOX + 2.5 μM Cpd

| Fold reversal (IC50 doxorubicin alone / IC50 doxorubicin + MDR inhibitor) (HL60/ADR cells; ratio at 0.5 μM Cpd) | Fold reversal (IC50 doxorubicin alone / IC50 doxorubicin + MDR inhibitor) (HL60/ADR cells; ratio at 1.0 μM Cpd) | Fold reversal (IC50 doxorubicin alone / IC50 doxorubicin + MDR inhibitor) (HL60/ADR cells; ratio at 2.5 μM Cpd) | SMILES | MDR ratio (IC50 Dox / IC50 Dox+Inhibitor) (L1210vDOX; MDR ratio at 0.5 μM Cpd) | MDR ratio (IC50 Dox / IC50 Dox+Inhibitor) (L1210vDOX; MDR ratio at 1.0 μM Cpd) | MDR ratio (IC50 Dox / IC50 Dox+Inhibitor) (L1210vDOX; MDR ratio at 2.5 μM Cpd) | pIC50 (L1210vDOX; [1]) | pIC50 (L1210vDOX; [2]) | pIC50 (L1210vDOX; [3]) | pIC50 (HL60/ADR cells; Homo sapiens, 72 h, doxorubicin alone, control of the compound of the line, HL60/ADR cells, 3 days, read-out: IC50 DOX Alone) |
| --- | --- | --- | --- | --- | --- | --- | --- | --- | --- | --- |
|  |  |  | CCCOc1cc2c(c(OCCC)c1C)CC[C@@H](Cc1cccnc1)[C@@H]2OC(=O)[C@@H]1CCCCN1C(=O)C(=O)c1cc(OC)c(OC)c(OC)c1 (single isomer, unassigned) [Compound 30B] | 1.4 | 2.0 | > 7.0 |  |  |  |  |
|  |  |  | COc1cc(C(=O)C(=O)N2CCCC[C@H]2C(=O)N[C@@H]2CCCc3ccc(OCc4ccncc4)cc32)cc(OC)c1OC [Compound 11A, 1-(2-Oxo-2-(3,4,5-trimethoxyphenyl)-acetyl)-piperidine-2(S)-carboxylic acid 2-((7-pyridin-4-ylmethoxy)-1,2,3,4-tetrahydronaphthalen-1(R)-yl) amide] | 1.1 | 2.0 | 4.0 | 6.19 | 6.46 | 6.76 |  |
|  |  |  | COc1cc(C(=O)C(=O)N2CCCC[C@H]2C(=O)O[C@@H]2CCCc3ccc(OCc4ccncc4)cc32)cc(OC)c1OC [Compound 7, 1-(2 -Oxo-2(3,4,5-trimethoxyphenyl)-acetyl)-piperidine-2(S)-carboxylic acid 2-((7-pyridin-4-ylmethoxy)-1,2,3,4-tetrahydronaphthalen-1(R)-yl) ester] | 23.1 | 4.8 | 9.5 |  |  |  |  |
|  |  |  | COc1cc(C(=O)C(=O)N[C@@H](Cc2ccccc2)C(=O)O[C@@H]2CCCc3ccc(OCc4ccncc4)cc32)cc(OC)c1OC [Compound 19, 3-Benzyl-2(S)-((2-oxo-2-(3,4,5-trimethoxyphenyl-)acetyl)amino) propanoic acid ((7-pyridin-4-ylmethoxy)-1,2,3,4-tetrahydronaphthalen-1(R)-yl) ester] | 1.6 | 2.4 | 6.3 |  |  |  |  |
|  |  |  | COc1cccc2c1C(=O)c1c(O)c3c(c(O)c1C2=O)C[C@@](O)(C(=O)CO)C[C@@H]3O[C@H]1C[C@H](N)[C@H](O)[C@H](C)O1 [DOX, doxorubicin, reference compound] |  |  |  |  |  |  | 5.46 |
|  |  |  | COc1cc(C(=O)C(=O)N2CCCC[C@H]2C(=O)N[C@H]2CCCc3ccc(OCc4ccncc4)cc32)cc(OC)c1OC [Compound 11B, 1-(2-Oxo-2-(3,4,5-trimethoxyphenyl)-acetyl)-piperidine-2(S)-carboxylic acid 2-((7-pyridin-4-ylmethoxy)-1,2,3,4-tetrahydronaphthalen-1(S)-yl) amide] | 1.8 | 2.2 | 10.0 | 6.40 | 6.49 | 7.15 |  |
|  |  |  | COc1cc(C(=O)C(=O)N2CCCC[C@H]2C(=O)OC2CCCc3c(OCc4ccncc4)cccc32)cc(OC)c1OC (stereo partly drawn) [Compound 9, 1-(2-Oxo-2-(3,4,5-trimethoxyphenyl)-acetyl)-piperidine-2(S)-carboxylic acid 2-((5-pyridin-4-ylmethoxy)-1,2,3,4-tetrahydronaphthalen-1-yl) ester] | 6.4 | 13.7 | 22.8 | 6.12 | 6.46 | 6.76 |  |
|  |  |  | COc1cc(C(=O)C(=O)N2CCCC[C@H]2C(=O)N(Cc2ccccc2)C2CCCc3ccc(OCc4ccncc4)cc32)cc(OC)c1OC (single isomer, unassigned) [Compound 15] | 6.1 | > 8.5 | > 8.5 |  |  |  |  |
| 8.8 | 6.4 | 39 | COc1cc(C(=O)C(=O)N2CCCC[C@H]2C(=O)O[C@H]2CCCc3ccc(OCc4ccncc4)cc32)cc(OC)c1OC [Compound 6, 1-(2-Oxo-2-(3,4,5-trimethoxyphenyl)-acetyl)-piperidine-2(S)-carboxylic acid 2-((7-pyridin-4-ylmethoxy)-1,2,3,4-tetrahydronaphthalen-1(S)-yl) ester] | 4.8 | 6.3 | 9.5 |  |  |  |  |
| 2.3 | 11.7 | 11.7 | COc1cc(C(=O)C(=O)N2Cc3ccccc3C[C@H]2C(=O)O[C@@H]2CCCc3ccc(OCc4ccncc4)cc32)cc(OC)c1OC [Compound 17, 2-(2-Oxo-2-(3,4,5-trimethoxyphenyl)-acetyl)-1,2,3,4-tetrahydroisoquinoline-3(S)-carboxylic acid 2-((7-pyridin-4-ylmethoxy)-1,2,3,4-tetrahydronaphthalen-1(R)-yl) ester] | 5.6 | 8.7 | 11.1 |  |  |  |  |
|  |  |  | COc1cc(C(=O)C(=O)N2Cc3ccccc3C[C@H]2C(=O)O[C@H]2CCCc3ccc(OCc4ccncc4)cc32)cc(OC)c1OC [Compound 18, 2-(2-Oxo-2-(3,4,5-trimethoxyphenyl)-acetyl)-1,2,3,4-tetrahydroisoquinoline-3(S)-carboxylic acid 2-((7-pyridin-4-ylmethoxy)-1,2,3,4-tetrahydronaphthalen-1(S)-yl) ester] | 3.3 | 6.7 | 10.0 |  |  |  |  |
| 2.3 | 39 | > 60 | COc1cc(C(=O)C(=O)N2CCCC[C@H]2C(=O)N(Cc2ccccc2)C2CCCc3ccc(OCc4ccncc4)cc32)cc(OC)c1OC (single isomer, unassigned) [Compound 16] | 2.2 | 7.1 | > 8.5 |  |  |  |  |
| 3.5 | 3.2 | 23 | COc1cc(C(=O)C(=O)N(C)[C@@H](Cc2ccccc2)C(=O)O[C@H]2CCCc3ccc(OCc4ccncc4)cc32)cc(OC)c1OC [Compound 21] | 5.4 | 6.8 | 8.7 |  |  |  |  |
|  |  |  | CCCOc1cc2c(c(OCCC)c1C)CC[C@H](Cc1cccnc1)[C@H]2OC(=O)[C@@H]1CCCCN1C(=O)C(=O)c1cc(OC)c(OC)c(OC)c1 (single isomer, unassigned) [Compound 30A] | 1.4 | 2.3 | > 7.0 |  |  |  |  |
|  |  |  | COc1cc(C(=O)C(=O)N(C)[C@@H](Cc2ccccc2)C(=O)O[C@@H]2CCCc3ccc(OCc4ccncc4)cc32)cc(OC)c1OC [Compound 20, 3-Benzyl-2(S)-(methyl-(2-oxo-2-(3,4,5-trimethoxyphenyl)-acetyl)amino) propanoic acid ((7-pyridin-4-ylmethoxy)-1,2,3,4-tetrahydronaphthalen-1(R)-yl) ester] | 3.0 | 7.0 | 10.5 |  |  |  |  |
|  |  |  | CCCOc1cc2c(c(OCCC)c1C)CC[C@H](Cc1cccnc1)[C@@H]2OC(=O)[C@@H]1CCCCN1C(=O)C(=O)c1cc(OC)c(OC)c(OC)c1 [Compound 29A] | 1.4 | 1.8 | > 7.0 | 6.60 | 6.72 | > 7.30 |  |
|  |  |  | CCCOc1cc2c(c(OCCC)c1C)CC[C@@H](Cc1cccnc1)[C@H]2OC(=O)[C@@H]1CCCCN1C(=O)C(=O)c1cc(OC)c(OC)c(OC)c1 (single isomer, unassigned) [Compound 29B] | 1.8 | 3.7 | > 7.0 |  |  |  |  |
